According to US8569267B2, “Tetracyclic tetrahydrofuran derivatives containing cyclic amine side chain” (Janssen Pharmaceutica, NV, priority 2005, dated 2013):

Tests used:
[1] = biological target: T1, human Dopamine D2L receptor (Homo sapiens, UniProt P14416); experiment: In vitro binding affinity for human D2L receptor ([3H]Spiperone binding); settings: human D2L receptor-transfected CHO cell membranes; for IC50: read-out: D2L pIC50 (converted)
T1 construct: expressed in transfected cells; host or cells: CHO cells
T1 sequence (P14416 whole entry): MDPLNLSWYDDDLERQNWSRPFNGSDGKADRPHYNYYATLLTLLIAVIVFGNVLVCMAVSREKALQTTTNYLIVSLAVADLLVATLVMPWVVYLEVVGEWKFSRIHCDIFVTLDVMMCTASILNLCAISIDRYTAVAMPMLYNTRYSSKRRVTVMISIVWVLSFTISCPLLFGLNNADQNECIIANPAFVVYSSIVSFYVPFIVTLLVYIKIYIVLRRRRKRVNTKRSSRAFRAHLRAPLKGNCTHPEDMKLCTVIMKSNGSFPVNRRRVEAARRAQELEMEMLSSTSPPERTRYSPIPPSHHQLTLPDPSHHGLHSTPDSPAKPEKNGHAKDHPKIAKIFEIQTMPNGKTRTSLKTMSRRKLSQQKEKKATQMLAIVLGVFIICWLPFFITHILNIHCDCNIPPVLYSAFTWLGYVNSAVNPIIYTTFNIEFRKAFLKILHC
Method: In Vitro Binding Affinity for Human D2L Receptor
Frozen membranes of human Dopamine D2L receptor-transfected CHO cells were thawed, briefly homogenised using an Ultra-Turrax T25 homogeniser and diluted in Tris-HCl assay buffer containing NaCl, CaCl2, MgCl2, KCl (50, 120, 2, 1, and 5 mM respectively, adjusted to pH 7.7 with HCl) to an appropriate protein concentration optimised for specific and non-specific binding. Radioligand [^3H]Spiperone (NEN, specific activity ˜70 Ci/mmol) was diluted in assay buffer at a concentration of 2 nmol/L. Prepared radioligand (50 μl), along with 50 μl of either the 10% DMSO control, Butaclamol (10^−6 mol/l final concentration), or compound of interest, was then incubated (30 min, 37° C.) with 400 μl of the prepared membrane solution. Membrane-bound activity was filtered through a Packard Filtermate harvester onto GF/B Unifilterplates and washed with ice-cold Tris-HCl buffer (50 mM; pH 7.7; 6×0.5 ml). Filters were allowed to dry before adding scintillation fluid and counting in a Topcount scintillation counter. Percentage specific bound and competition binding curves were calculated using S-Plus software (Insightful).

[2] = biological target: T2, human cloned 5-HT2C receptor, expressed in CHO cells (Homo sapiens, UniProt P28335); experiment: In vitro binding affinity for 5-HT2C receptor ([3H]mesulergine radioligand binding); settings: human cloned 5-HT2C receptor; for IC50: read-out: 5-HT2C pIC50 (converted)
T2 construct: expressed in transfected cells; host or cells: CHO cells
T2 sequence (P28335 33-458): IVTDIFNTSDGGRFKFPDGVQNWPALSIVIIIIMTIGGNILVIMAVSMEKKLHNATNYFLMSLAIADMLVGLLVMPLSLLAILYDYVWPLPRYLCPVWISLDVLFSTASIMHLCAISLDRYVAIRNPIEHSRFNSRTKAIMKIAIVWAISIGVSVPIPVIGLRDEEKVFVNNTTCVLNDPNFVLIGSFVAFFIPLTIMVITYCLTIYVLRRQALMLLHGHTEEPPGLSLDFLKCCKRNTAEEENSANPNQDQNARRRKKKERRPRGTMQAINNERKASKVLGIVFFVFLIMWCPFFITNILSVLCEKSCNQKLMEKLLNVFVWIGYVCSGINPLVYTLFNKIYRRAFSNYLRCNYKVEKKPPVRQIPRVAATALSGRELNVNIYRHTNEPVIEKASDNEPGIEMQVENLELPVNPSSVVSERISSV
Method: In Vitro Binding Affinity for 5-HT2A and 5-HT2C Receptors
The interaction of the compounds of Formula (I) with 5-HT2A and 5-HT2C receptors was assessed in in vitro radioligand binding experiments. […] During the incubation, the radioligands bind to the receptor. When equilibrium of binding is reached, the receptor bound radioactivity is separated from the non-bound radioactivity, and the receptor bound activity is counted. The interaction of the test compounds with the receptors is assessed in competition binding experiments. Various concentrations of the test compound are added to the incubation mixture containing the tissue preparation and the radioligand. Binding of the radioligand will be inhibited by the test compound in proportion to its binding affinity and its concentration.

[3] = biological target: T3, NET (norepinephrine transporter) (Rattus norvegicus, UniProt Q63380); experiment: In vitro determination of NET reuptake inhibition ([3H]Nixosetine binding, rat brain cortex); settings: rat brain cortex; for IC50: read-out: NET pIC50 (converted)
T3 construct: Cortex from rat brain was collected and homogenised; from tissue; host or cells: rat brain cortex
T3 sequence (Q63380 1-617): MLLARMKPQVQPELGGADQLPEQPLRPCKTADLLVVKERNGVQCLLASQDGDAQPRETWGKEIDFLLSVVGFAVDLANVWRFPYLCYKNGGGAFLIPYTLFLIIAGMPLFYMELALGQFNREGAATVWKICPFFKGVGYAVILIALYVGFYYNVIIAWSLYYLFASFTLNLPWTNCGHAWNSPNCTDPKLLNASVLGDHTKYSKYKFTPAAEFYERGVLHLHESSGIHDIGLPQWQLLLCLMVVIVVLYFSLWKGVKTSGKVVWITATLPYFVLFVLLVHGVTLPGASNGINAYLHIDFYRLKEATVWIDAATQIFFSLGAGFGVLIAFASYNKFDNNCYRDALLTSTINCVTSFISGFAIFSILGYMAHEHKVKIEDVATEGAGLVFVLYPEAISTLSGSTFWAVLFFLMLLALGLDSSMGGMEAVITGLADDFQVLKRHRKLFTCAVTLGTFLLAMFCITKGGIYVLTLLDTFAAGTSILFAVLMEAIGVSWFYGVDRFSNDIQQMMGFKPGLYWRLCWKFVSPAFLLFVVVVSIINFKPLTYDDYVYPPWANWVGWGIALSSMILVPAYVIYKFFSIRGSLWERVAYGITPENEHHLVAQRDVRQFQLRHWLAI
Method: In Vitro Determination of NET Reuptake Inhibition
Cortex from rat brain was collected and homogenised using an Ultra-Turrax T25 and a Dual homogeniser in ice-cold homogenising buffer containing Tris, NaCl and KCl (50 mM, 120 mM and 5 mM, respectively, pH 7.4) prior to dilution to an appropriate protein concentration optimised for specific and non-specific binding. […] Membrane-bound activity was detected by filtration through a Packard Filtermate harvester onto GF/B Unifilterplates, washed with ice-cold Tris-HCl buffer, containing NaCl and KCl (50 mM, 120 mM and 4 mM; pH 7.4; 6×0.5 ml). Filters were allowed to dry for 24 h before adding scintillation fluid. Scintillation fluid was allowed to saturate filters for 24 h before counting in a Topcount scintillation counter. Percentage specific bound and competition binding curves were calculated using S-Plus software (Insightful).

Row | SMILES | D2L pIC50 [1] | 5-HT2C pIC50 [2] | NET pIC50 [3] | IC50 [1] | IC50 [2] | IC50 [3]
1 | O=C(O)C(=O)O.O[C@H]1CCN(C[C@H]2C[C@@H]3c4ccccc4Cc4ccc(F)cc4[C@@H]3O2)C1 [Compound 3] | 8.01 | 9.57 | 5.45 | – | – | –
2 | O=C(Cc1ccc(Cl)cc1)NC1CCN(CC2CC3c4ccccc4Cc4ccc(F)cc4C3O2)CC1 (stereo not drawn) [Compound 239] | – | – | – | 49 nM | 22.9 nM | > 10000 nM
3 | COc1ccc(NC(=O)CC2CN(C[C@H]3C[C@@H]4c5ccccc5Cc5ccc(F)cc5[C@@H]4O3)CCO2)cc1 (stereo partly drawn) [Compound 139] | – | – | – | 56.2 nM | 24.5 nM | > 10000 nM
4 | N#Cc1ccc2c(c1)C1CC(CN3CCC(O)C3)OC1c1cc(F)ccc1S2.O=C(O)C(=O)O (mixture of isomers) [Compound 259] | 6.59 | 7.64 | 5.38 | – | – | –
5 | O=C(NC1CCN(CC2CC3c4ccccc4Cc4ccc(F)cc4C3O2)CC1)c1cccc(Cl)c1Cl (stereo not drawn) [Compound 228] | – | – | – | 9.12 nM | 20.9 nM | 7940 nM
6 | CC1c2ccccc2C2CC(CN3CCC(O)C3)OC2c2cc(F)ccc21.O=C(O)C(=O)O (mixture of isomers) [Compound 45] | 6.46 | 8.66 | 7.33 | – | – | –
7 | O=C(NCc1cccc(I)c1)C1CCN(CC2CC3c4ccccc4Cc4ccc(F)cc4C3O2)CC1 (stereo not drawn) [Compound 196] | – | – | – | 14.1 nM | 5.01 nM | 2750 nM
8 | O=C(O)C(=O)O.O[C@@H]1CCN(C[C@H]2C[C@@H]3c4ccccc4Cc4ccc(F)cc4[C@@H]3O2)C1 [Compound 2] | 7.86 | 9.58 | 6.34 | – | – | –
9 | O=C(NCc1cccc(C(F)(F)F)c1)C1CCN(CC2CC3c4ccccc4Cc4ccc(F)cc4C3O2)CC1 (stereo not drawn) [Compound 182] | – | – | – | 31.6 nM | 8.32 nM | 6920 nM
10 | NCCNC(=S)NC1CCN(CC2CC3c4ccccc4Cc4ccc(F)cc4C3O2)CC1 (stereo not drawn) [Compound 256] | – | – | – | 44.7 nM | 44.7 nM | 6460 nM
11 | OCC1CC2CN(C[C@H]3C[C@@H]4c5ccccc5Cc5ccc(F)cc5[C@@H]4O3)CCC2O1 (stereo partly drawn) [Compound 274, [2R-(2α, 3aα, 12bβ)]-(2′RS,3a′RS, 7a′RS)[5-(11-fluoro-3,3a,8,12b-tetrahydro-2H-1-oxa-dibenzo[e,h]azulen-2-ylmethyl)-octahydro-furo[3,2-c]pyridin-2-yl]-methanol.oxalate (1:1)] | – | – | – | 16.2 nM | 0.912 nM | > 10000 nM
12 | COC(=O)NC1CCN(CC2CC3c4ccccc4Cc4ccc(F)cc4C3O2)CC1 (stereo not drawn) [Compound 210] | – | – | – | 7.94 nM | 4.17 nM | 7410 nM
13 | CC(=O)N1CCC(C(=O)NC2CCN(CC3CC4c5ccccc5Cc5ccc(F)cc5C4O3)CC2)CC1 (stereo not drawn) [Compound 224] | – | – | – | 3.39 nM | 12.9 nM | > 10000 nM
14 | CCCCOC(=O)NC1CCN(CC2CC3c4ccccc4Cc4ccc(F)cc4C3O2)CC1 (stereo not drawn) [Compound 213] | – | – | – | 8.71 nM | 15.5 nM | 4370 nM
15 | O=C(NCc1cccs1)C1CCN(CC2CC3c4ccccc4Cc4ccc(F)cc4C3O2)CC1 (stereo not drawn) [Compound 195] | – | – | – | 5.5 nM | 1.62 nM | 7760 nM
16 | O=C(NC1CCN(CC2CC3c4ccccc4Cc4ccc(F)cc4C3O2)CC1)c1ccccc1F (stereo not drawn) [Compound 232] | – | – | – | 4.79 nM | 9.77 nM | 4070 nM
17 | CCCNC(=O)NC1CCN(C[C@H]2C[C@@H]3c4ccccc4Cc4ccc(F)cc4[C@@H]3O2)CC1 [Compound 244] | – | – | – | 4.57 nM | 4.27 nM | 8910 nM

Row | SMILES | D2L pIC50 [1] | 5-HT2C pIC50 [2] | NET pIC50 [3] | IC50 [1] | IC50 [2] | IC50 [3]
18 | CCOC(=O)C1CCCN(C[C@H]2C[C@@H]3c4ccccc4Cc4ccc(F)cc4[C@@H]3O2)C1 (stereo partly drawn) [Compound 160] | – | – | – | 14.5 nM | 2.88 nM | > 10000 nM
19 | O=C(NC1CCN(CC2CC3c4ccccc4Cc4ccc(F)cc4C3O2)CC1)NC1CC1c1ccccc1 (mixture of isomers) [Compound 246] | – | – | – | 11.7 nM | 5.75 nM | 1350 nM
20 | Cc1onc(-c2ccccc2Cl)c1C(=O)NC1CCN(CC2CC3c4ccccc4Cc4ccc(F)cc4C3O2)CC1 (stereo not drawn) [Compound 222] | – | – | – | 15.1 nM | 19.5 nM | > 10000 nM
21 | COc1cc(NC(=S)NC2CCN(CC3CC4c5ccccc5Cc5ccc(F)cc5C4O3)CC2)cc(OC)c1OC (stereo not drawn) [Compound 255] | – | – | – | 20.4 nM | 20.4 nM | 5620 nM
22 | C#CCOC(=O)NC1CCN(CC2CC3c4ccccc4Cc4ccc(F)cc4C3O2)CC1 (stereo not drawn) [Compound 217] | – | – | – | 4.9 nM | 4.07 nM | 8910 nM
23 | CCOC(=O)C1CCN(C[C@H]2C[C@@H]3c4ccccc4Cc4ccc(F)cc4[C@@H]3O2)CC1 [Compound 162] | – | – | – | 3.63 nM | 1.02 nM | > 10000 nM
24 | O=C(NC1CCN(CC2CC3c4ccccc4Cc4ccc(F)cc4C3O2)CC1)c1ccc(Cl)c(Cl)c1 (stereo not drawn) [Compound 229] | – | – | – | 14.8 nM | 24 nM | > 10000 nM
25 | O=C(NC1CCN(CC2CC3c4ccccc4Cc4ccc(F)cc4C3O2)CC1)c1cc2ccccc2s1 (stereo not drawn) [Compound 223] | – | – | – | 17.8 nM | 23.4 nM | 8510 nM
26 | O=C(NC1CCN(CC2CC3c4ccccc4Cc4ccc(F)cc4C3O2)CC1)c1c(F)c(F)c(F)c(F)c1F (stereo not drawn) [Compound 234] | – | – | – | 8.71 nM | 21.9 nM | 7240 nM
27 | N#Cc1ccc(NC(=O)NC2CCN(CC3CC4c5ccccc5Cc5ccc(F)cc5C4O3)CC2)cc1 (stereo not drawn) [Compound 248] | – | – | – | 2.09 nM | 6.17 nM | 3800 nM
28 | Fc1ccc2c(c1)C1OC(CN3CCC(NC(=S)Nc4cccnc4)CC3)CC1c1ccccc1C2 (stereo not drawn) [Compound 254] | – | – | – | 12.3 nM | 20 nM | 3470 nM
29 | O=C(Cc1cccs1)NC1CCN(CC2CC3c4ccccc4Cc4ccc(F)cc4C3O2)CC1 (stereo not drawn) [Compound 240] | – | – | – | 4.57 nM | 5.75 nM | > 10000 nM
30 | Fc1ccc2c(c1)C1OC(CN3CCOC(CCOc4ccccc4)C3)CC1c1ccccc1C2 (mixture of isomers) [Compound 131] | – | – | – | 19.5 nM | 30.9 nM | 2400 nM
31 | CC(=O)OC1CCN(C[C@H]2C[C@@H]3c4ccccc4Cc4ccc(F)cc4[C@@H]3O2)CC1 [Compound 166] | – | – | – | 2.09 nM | < 1 nM | 7240 nM
32 | COc1cc(C(=O)NC2CCN(CC3CC4c5ccccc5Cc5ccc(F)cc5C4O3)CC2)cc(OC)c1OC (stereo not drawn) [Compound 235] | – | – | – | 18.6 nM | 13.5 nM | 9120 nM
33 | O=C(O)C1CCN(C[C@H]2C[C@@H]3c4ccccc4Cc4ccc(F)cc4[C@@H]3O2)CC1 [Compound 157] | – | – | – | 132 nM | 7.24 nM | > 10000 nM
34 | O=C(CSc1ccccc1)NC1CCN(CC2CC3c4ccccc4Cc4ccc(F)cc4C3O2)CC1 (stereo not drawn) [Compound 241] | – | – | – | 5.5 nM | 6.46 nM | 7760 nM
